According to patent publication US20250289787A1, “HERBICIDAL 2-OXO-NICOTINIC ACID DERIVATIVES” (SYNGENTA CROP PROTECTION AG, priority 2022, published 2025):

Assays:
Format in all cases: in vivo
[1] = system: Amaranthus palmeri (AMAPA); test: Pre-emergence test, herbicidal damage; details: 1000 g/ha unless otherwise stated, evaluated after 13 days, five-point scale
[2] = system: Amaranthus retoflexus (AMARE); test: Pre-emergence test, herbicidal damage; details: 1000 g/ha unless otherwise stated, evaluated after 13 days, five-point scale
[3] = system: Echinochloa crus-galli (ECHCG); test: Pre-emergence test, herbicidal damage; details: 1000 g/ha unless otherwise stated, evaluated after 13 days, five-point scale
[4] = system: Zea mays (ZEAMX); test: Pre-emergence test, herbicidal damage; set-up: key: 5=81-100%; 4=61-80%; 3=41-60%; 2=21-40%; 1=1-20%; 0=no damage to the plant; -=not tested; details: 1000 g/ha unless otherwise stated, evaluated after 13 days, five-point scale
[5] = system: Ipomoea hederacea (IPOHE); test: Pre-emergence test, herbicidal damage; set-up: key: 5=81-100%; 4=61-80%; 3=41-60%; 2=21-40%; 1=1-20%; 0=no damage to the plant; -=not tested; details: 1000 g/ha unless otherwise stated, evaluated after 13 days, five-point scale
[6] = system: Setaria faberi (SETFA); test: Pre-emergence test, herbicidal damage; details: 1000 g/ha unless otherwise stated, evaluated after 13 days, five-point scale
[7] = system: Amaranthus palmeri (AMAPA); test: Post-emergence test, herbicidal damage; set-up: key: 5=81-100%; 4=61-80%; 3=41-60%; 2=21-40%; 1=1-20%; 0=no damage to the plant; -=not tested; details: sprayed after 8 days cultivation, 1000 g/ha unless otherwise stated, evaluated after 13 days, five-point scale
How it was run: (§1)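 Pots in a glasshouse (24 °C/16 °C day/night, 14 h light, 65% humidity) were sprayed at 1000 g/ha in acetone/water (50:50) with 0.5% Tween 20. Percentage damage was scored after 13 days on a 0–5 scale (5 = 81–100%, 1 = 1–20%, 0 = no damage).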

[8] = system: Amaranthus retoflexus (AMARE); test: Post-emergence test, herbicidal damage; set-up: key: 5=81-100%; 4=61-80%; 3=41-60%; 2=21-40%; 1=1-20%; 0=no damage to the plant; -=not tested; details: sprayed after 8 days cultivation, 1000 g/ha unless otherwise stated, evaluated after 13 days, five-point scale
How it was run: as §1

[9] = system: Echinochloa crus-galli (ECHCG); test: Post-emergence test, herbicidal damage; set-up: key: 5=81-100%; 4=61-80%; 3=41-60%; 2=21-40%; 1=1-20%; 0=no damage to the plant; -=not tested; details: sprayed after 8 days cultivation, 1000 g/ha unless otherwise stated, evaluated after 13 days, five-point scale
How it was run: as §1

[10] = system: Ipomoea hederacea (IPOHE); test: Post-emergence test, herbicidal damage; set-up: key: 5=81-100%; 4=61-80%; 3=41-60%; 2=21-40%; 1=1-20%; 0=no damage to the plant; -=not tested; details: sprayed after 8 days cultivation, 1000 g/ha unless otherwise stated, evaluated after 13 days, five-point scale
How it was run: as §1

[11] = system: Setaria faberi (SETFA); test: Post-emergence test, herbicidal damage; set-up: key: 5=81-100%; 4=61-80%; 3=41-60%; 2=21-40%; 1=1-20%; 0=no damage to the plant; -=not tested; details: sprayed after 8 days cultivation, 1000 g/ha unless otherwise stated, evaluated after 13 days, five-point scale
How it was run: as §1

[12] = system: Zea mays (ZEAMX); test: Post-emergence test, herbicidal damage; set-up: key: 5=81-100%; 4=61-80%; 3=41-60%; 2=21-40%; 1=1-20%; 0=no damage to the plant; -=not tested; details: sprayed after 8 days cultivation, 1000 g/ha unless otherwise stated, evaluated after 13 days, five-point scale
How it was run: as §1

Cc1c(Cl)c(-c2ccc(Cl)c(Cl)c2)c(C(=O)O)c(=O)n1Cc1ccc(F)cc1F [Compound 34, 5-chloro-4-(3,4-dichlorophenyl)-1-[(2,4-difluorophenyl)methyl]-6-methyl-2-oxo-pyridine-3-carboxylic acid]
percentage damage caused to the plant, AMAPA [1]: 4 (4=61-80%) | percentage damage caused to the plant, AMARE [2]: 3 (3=41-60%) | percentage damage caused to the plant, ECHCG [3]: 1 (1=1-20%) | percentage damage caused to the plant, ZEAMX [4]: 0 | percentage damage caused to the plant, IPOHE [5]: 0 | percentage damage caused to the plant, SEFTA [6]: 1 (1=1-20%) | percentage damage caused to the plant, AMAPA [7]: 4 (4=61-80%) | percentage damage caused to the plant, AMARE [8]: 3 (3=41-60%) | percentage damage caused to the plant, ECHCG [9]: 1 (1=1-20%) | percentage damage caused to the plant, IPOHE [10]: 1 (1=1-20%) | percentage damage caused to the plant, SEFTA [11]: 0 | percentage damage caused to the plant, ZEAMX [12]: 0
